# In patent publication US20230114357A1, “CONTINUOUS MELT-COATING OF ACTIVE PHARMACEUTICAL INGREDIENTS USING SURFACTANTS FOR DISSOLUTION ENHANCEMENT” (Rutgers,The State University of New Jersey, priority 2020, published 2023):
# Key:
# [1] = Powder bulk density of ibuprofen / 10% P407 powders; assay type: physicochemical; settings: ibuprofen combined with 10% Poloxamer 407, not subjected to heat and shear
# Experimental: The screw configurations are shown below, where “C” represents conveying elements and “K” represents kneading elements: For each experiment, mean residence time, powder temperature, and powder bulk density were measured.
# [2] = 50 mg powder, 10% cetylpyridinium chloride, 100 rpm, 900 ml deionized water; FIG. 7
# Experimental: Dissolution testing was performed on the following materials used or prepared herein in order to determine the percentage of carbamazepine released over time: • 10% cetylpyridinium chloride Treated • 10% cetylpyridinium chloride Physical Mix • Carbamazepine, no surfactant
# In each test, 50 mg of powder was added to a dissolution vessel, and dissolution was conducted using the USP paddle method at 100 rpm in 900 ml of a buffer medium of deionized water.
# [3] = Dissolution testing of ibuprofen/polyoxyethylene stearate powders (USP paddle method); assay type: physicochemical; settings: 12 mg powder, Ibuprofen 2, 10% polyoxyethylene stearate, 75 rpm, 900 ml 0.02 M hydrochloric acid pH 1.8; FIG. 6
# Experimental: (§1) In each test, 12 mg of powder was added to a dissolution vessel, and dissolution was conducted using the USP paddle method at 75 rpm in 900 ml of a buffer medium comprising 0.02 M hydrochloric acid and having a pH of 1.8.
# [4] = Dissolution testing of ibuprofen/poloxamer powders (USP paddle method); assay type: physicochemical; settings: 12 mg powder, 75 rpm, 900 ml 0.02 M hydrochloric acid pH 1.8; Ibuprofen 1, 2, 3; FIGS. 2-4
# Experimental: (§2) For each test, 12 mg of powder was added to a dissolution vessel, and dissolution was conducted using the USP paddle method at 75 rpm in 900 ml of a buffer medium comprising 0.02 M hydrochloric acid and having a pH of 1.8.
# physchem = settings: pH 1.8, simulated gastric fluid
# Experimental: as §2, §1
compound,measurement,setting,value
"CC(C)Cc1ccc(C(C)C(=O)O)cc1 (stereo not shown) [Ibuprofen 1, ibuprofen]",Powder Bulk Density of 10% P407 Physical Mix,[1],0.320 g/ml
"CC(C)Cc1ccc(C(C)C(=O)O)cc1 (stereo not shown) [Ibuprofen 2, ibuprofen]",Powder Bulk Density of 10% P407 Physical Mix,[1],0.374 g/ml
"CC(C)Cc1ccc(C(C)C(=O)O)cc1 (stereo not shown) [Ibuprofen 3, ibuprofen]",Powder Bulk Density of 10% P407 Physical Mix,[1],0.382 g/ml
"NC(=O)N1c2ccccc2C=Cc2ccccc21 [Uncoated carbamazepine, carbamazepine]",dissolution rate (percentage of carbamazepine released over time),[2],poorest dissolution rate
"CC(C)Cc1ccc(C(C)C(=O)O)cc1 (stereo not shown) [Uncoated ibuprofen, ibuprofen]",dissolution rate (percentage of ibuprofen released over time),[3],poorest dissolution rate
same,dissolution rate (percentage of ibuprofen released over time),[4],slowest dissolution rate
same,solubility,physchem,53 µg/mL
